Laboratory results published in paper PMC11945486, “TAS1R2/TAS1R3 Single-Nucleotide Polymorphisms Affect Sweet Taste Receptor Activation by Sweeteners: The SWEET Project” (Nutrients, 2025).
No end group written: not given here.

T1: human TAS1R2-S212G/TAS1R3-WT (Homo sapiens, UniProt Q7RTX0+Q8TE23, S212G)
T1 construct: expressed in transfected cells; host or cells: HEK293T-Gα16gust44
T1 sequence (Q8TE23 20-839 S212G): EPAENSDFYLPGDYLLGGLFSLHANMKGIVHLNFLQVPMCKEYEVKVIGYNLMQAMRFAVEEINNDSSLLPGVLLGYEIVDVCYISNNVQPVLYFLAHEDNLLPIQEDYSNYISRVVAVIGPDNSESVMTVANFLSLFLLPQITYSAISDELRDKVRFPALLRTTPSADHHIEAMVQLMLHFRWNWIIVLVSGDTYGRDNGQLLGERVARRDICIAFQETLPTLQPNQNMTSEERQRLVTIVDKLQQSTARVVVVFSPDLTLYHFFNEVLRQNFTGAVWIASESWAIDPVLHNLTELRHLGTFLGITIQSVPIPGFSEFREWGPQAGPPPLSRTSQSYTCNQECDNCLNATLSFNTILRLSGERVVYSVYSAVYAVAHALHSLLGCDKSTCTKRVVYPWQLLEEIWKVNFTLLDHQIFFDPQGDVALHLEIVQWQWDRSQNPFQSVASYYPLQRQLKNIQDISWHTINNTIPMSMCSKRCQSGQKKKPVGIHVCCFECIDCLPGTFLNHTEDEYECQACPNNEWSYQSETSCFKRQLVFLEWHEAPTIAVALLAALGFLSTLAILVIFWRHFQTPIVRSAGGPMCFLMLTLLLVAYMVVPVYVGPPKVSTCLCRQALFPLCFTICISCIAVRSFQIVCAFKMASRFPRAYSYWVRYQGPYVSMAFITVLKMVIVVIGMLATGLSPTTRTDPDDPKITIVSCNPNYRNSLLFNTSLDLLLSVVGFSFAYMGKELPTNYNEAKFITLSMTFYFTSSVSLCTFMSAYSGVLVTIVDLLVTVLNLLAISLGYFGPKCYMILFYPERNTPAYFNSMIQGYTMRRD
T1 sequence (Q7RTX0 21-852): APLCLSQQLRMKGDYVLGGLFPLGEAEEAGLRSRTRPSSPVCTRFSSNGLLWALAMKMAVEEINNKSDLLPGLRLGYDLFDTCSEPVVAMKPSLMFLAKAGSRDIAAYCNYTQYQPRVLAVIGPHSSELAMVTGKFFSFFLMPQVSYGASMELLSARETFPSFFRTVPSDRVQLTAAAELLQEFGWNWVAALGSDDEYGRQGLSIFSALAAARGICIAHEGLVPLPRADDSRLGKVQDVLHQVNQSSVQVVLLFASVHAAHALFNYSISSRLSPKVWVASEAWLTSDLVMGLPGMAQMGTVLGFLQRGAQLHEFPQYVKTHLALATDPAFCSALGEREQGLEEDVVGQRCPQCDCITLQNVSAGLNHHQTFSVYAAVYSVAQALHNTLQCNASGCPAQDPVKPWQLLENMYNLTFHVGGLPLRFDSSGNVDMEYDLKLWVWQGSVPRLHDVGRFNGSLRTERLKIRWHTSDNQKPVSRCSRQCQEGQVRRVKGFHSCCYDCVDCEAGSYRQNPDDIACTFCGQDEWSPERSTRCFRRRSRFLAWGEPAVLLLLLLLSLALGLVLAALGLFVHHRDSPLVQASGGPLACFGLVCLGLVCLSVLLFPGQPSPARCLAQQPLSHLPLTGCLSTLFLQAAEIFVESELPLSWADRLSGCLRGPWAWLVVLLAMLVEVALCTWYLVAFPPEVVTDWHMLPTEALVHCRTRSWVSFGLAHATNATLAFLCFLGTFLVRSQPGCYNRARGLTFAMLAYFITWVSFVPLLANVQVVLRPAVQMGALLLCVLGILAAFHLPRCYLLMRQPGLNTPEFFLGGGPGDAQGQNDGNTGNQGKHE

B1: thaumatin (protein)
chain: ATFEIVNRCSYTVWAAASKGDAALDAGGRQLNSGESWTINVEPGTKGGKIWARTDCYFDDSGSGICKTGDCGGLLRCKRFGRPPTTLAEFSLNQYGKDYIDISNIKGFNVPMDFSPTTRGCRGVRCAADIVGQCPAKLKAPGGGCNDACTVFQTSEYCCTTGKCGPTEYSRFFKRLCPDAFSYVLDKPTTVTCPGSSNYRVTFCPTA
modifications: Eight disulfides
notes: sweet-tasting plant protein, E957

Target: T1, human TAS1R2-S212G/TAS1R3-WT
Assay: Calcium mobilisation assay, TAS1R2 variant S212G with TAS1R3-WT
Type: cell-based
Details: for Max ΔF/F0: maximal signal amplitude
Text: The coding sequences for TAS1R2 and TAS1R3 were commercially synthesised, and the human codon was optimised for expression in human cells. The coding sequences of human TAS1R2 and TAS1R3 were subcloned and inserted into the mammalian expression vectors pcDNA6/myc-HisA and pcDNA4/myc-HisA (Invitrogen; Thermo Fisher Scientific; Illkirch, France) between the EcoRI and NotI restriction sites, generating the plasmids pcDNA6-TAS1R2 and pcDNA4-TAS1R3, respectively. To increase protein expression in mammalian cells, an upstream start codon was used, which was a sequence called MAX, corresponding to the QBI SP163 element also described in pcDNA4-HisMax (Invitrogen; Thermo Fisher Scientific; Illkirch, France). To measure the expression level of the receptor by immunohistochemistry, we used the FLAG sequence ([…]) in the C-terminal position, which encodes the FLAG tag epitope. SNP variants of TAS1R2 and TAS1R3 were constructed based on […], respectively, using site-directed mutagenesis (Genewiz; Leipzig, Germany).
The HEK293T cells were kindly provided by Jay P. Slack (Givaudan Flavors Corporation; Cincinnati, OH, USA). HEK293T cells stably transfected with Gα16gust44 [43, 67] were seeded in poly-D-lysine-coated clear-bottom black 96-well plates (0.35 × 10^5 cells/well) in high-glucose DMEM supplemented with 2 mM GlutaMAX, 10% dialysed foetal bovine serum with penicillin/streptomycin and G418 (400 μg/mL) at 37 °C and 6.3% CO2 in a humidified atmosphere as previously reported. […] As a negative control, HEK293T cells were mock-transfected with the empty expression vector. After a further 24 h of incubation, the HEK293T cells were washed with C1 buffer (130 mM NaCl, 5 mM KCl, 10 mM HEPES pH 7.4 and 2 mM CaCl2). The 96-well plates containing the cells were then stimulated with sweet-tasting compounds. […] Different concentration ranges were tested depending on the sweet compound injected. The Ca^2+ changes were expressed as fractional changes in fluorescent light intensity: ΔF/F = (F − F0)/F0, where F was the fluorescent light intensity at each point, and F0 was the value of emitted fluorescent light prior to stimulus application. To calculate dose–response relationships, the changes in fluorescence upon stimulus application were averaged, mock-subtracted and baseline-corrected. The dose–response data obtained were adjusted using a 4-parameter logistic equation. The half-maximal effective concentrations (EC50 values) and maximal signal amplitudes were calculated using SigmaPlot software (version 15.0) (Systat Software; San Jose, CA, USA).
For in vitro calcium mobilisation assay performed on hTAS1R2-SNPs, hTAS1R3-SNPs and mTAS1R3-I60T, 6 to 7 concentrations were tested for each sweet compound, plus buffer alone. All concentration–receptor combinations were measured in duplicate, and each experiment was repeated at least 4 times (8 wells/concentration). Results were expressed for each concentration as ΔF/F mean ± SEM and represented as dose–response curves.

Molecule | EC50 | R1 = Variant EC50/WT EC50 | Max ΔF/F0
CC1=CC(=O)NS(=O)(=O)O1 [Acesulfame K, acesulfame K] | 438 ± 25 µM | 0.6 | 0.28 ± 0.01
O=S(=O)(O)NC1CCCCC1 [Cyclamate, cyclamate] | 1770 ± 44 µM | – | –
C[C@H](CC[C@@H](O[C@@H]1O[C@H](CO[C@@H]2O[C@H](CO)[C@@H](O)[C@H](O)[C@H]2O)[C@@H](O)[C@H](O)[C@H]1O[C@@H]1O[C@H](CO)[C@@H](O)[C@H](O)[C@H]1O)C(C)(C)O)[C@H]1CC[C@@]2(C)[C@@H]3CC=C4[C@@H](CC[C@H](O[C@@H]5O[C@H](CO[C@@H]6O[C@H](CO)[C@@H](O)[C@H](O)[C@H]6O)[C@@H](O)[C@H](O)[C@H]5O)C4(C)C)[C@]3(C)[C@H](O)C[C@]12C [Mogroside V, mogroside V] | 21.2 ± 2.1 µM | 1.2 | 1.32 ± 0.05
COc1ccc(CCC(=O)c2c(O)cc(O[C@@H]3O[C@H](CO)[C@@H](O)[C@H](O)[C@H]3O[C@@H]3O[C@@H](C)[C@H](O)[C@@H](O)[C@H]3O)cc2O)cc1O [NHDC, neohesperidin dihydrochalcone] | 90.7 ± 8.1 µM | 1.2 | 0.84 ± 0.03
COC(=O)[C@H](Cc1ccccc1)NC(=O)[C@H](CC(=O)O)NCCC(C)(C)C [Neotame] | 0.99 ± 0.05 µM | 1.2 | 0.63 ± 0.01
C=C(C)[C@@H]1CC=C(/C=N/O)CC1 [Perillartine, perillartine] | 22.9 ± 0.6 µM | 1.3 | 1.30 ± 0.01
C=C1C[C@@]23CC[C@H]4[C@@](C)(CCC[C@@]4(C)C(=O)O[C@@H]4O[C@H](CO)[C@@H](O)[C@H](O[C@@H]5O[C@H](CO)[C@@H](O)[C@H](O)[C@H]5O)[C@H]4O[C@@H]4O[C@H](CO)[C@@H](O)[C@H](O)[C@H]4O)[C@@H]2CC[C@]1(O[C@@H]1O[C@H](CO)[C@@H](O)[C@H](O[C@@H]2O[C@H](CO)[C@@H](O)[C@H](O)[C@H]2O)[C@H]1O[C@@H]1O[C@H](CO)[C@@H](O)[C@H](O)[C@H]1O)C3 [Rebaudioside M, rebaudioside M] | 23.2 ± 1.1 µM | 1.4 | 1.14 ± 0.02
OC[C@H]1O[C@H](O[C@]2(CCl)O[C@H](CCl)[C@@H](O)[C@@H]2O)[C@H](O)[C@@H](O)[C@H]1Cl [Sucralose] | 96 ± 6 µM | 1.1 | 0.64 ± 0.02
brazzein (QDKCKKVYENYPVSKCQLANQCNYDCKLDKHARSGECFYDEKRNLQCICDYCEY; ends and bridges not checked; cysteine pairing not given here; UniProt P56552 1-54, looked up) [sweet-tasting protein obtained by recombinant production using the yeast Pichia pastoris] | – | 1.4 | 1.18 ± 0.02
thaumatin | – | 0.8 | 0.6 ± 0.01
B1 | 6.1 ± 0.2 µM | – | –
